Measured values: patent publication US20100285611A1, “PHOTOBLEACHING RESISTANT PH SENSITIVE DYE NANOREACTORS WITH DUAL WAVELENGTH EMISSION” (priority 2009, published 2010)
Like-named read-outs stand apart in the source and are kept apart here.

Assays:
[1] = at room temperature; cited from earlier work
[2] = Photobleaching under 300 W Xenon lamp; format: physicochemical; conditions: after 100 minutes; 300 W Xenon lamp 15 cm away; DI water pH 9; 30° C.; 640 nm
Method: cSNARF-1 in DI water at pH 9 and the nanoreactors in the same solvent was placed into covered 1 cm-path length quartz cuvettes and kept at 30° C. using a circulating water bath while being continuously exposed to the emission of a 300 W Xenon lamp placed 15 cm away. […] The fluorescence intensity at 640 nm was recorded at 5 or 10 minute intervals.

[3] = Stopped flow kinetics of fluorescence response to pH change; format: physicochemical
Method: The time dependent response of cSNARF-1 solution and nanoreactors to the pH change was measured at 20° C. using an RX2000 Stopped-Flow Mixing Accessory (Applied Photophysics Limited, Leatherhead, UK) attached to the Cary Eclipse fluorescence spectrophotometer. The mixing time of this system is reported to be 8 msec, and the response time of Eclipse is 1 msec. To estimate the response time of the nanoreactors, they were first adjusted to pH 10 then mixed with a 50 mM phosphate buffer solution at pH 2. By exciting cSNARF-1 at 514 nm during this process, the pH-responsive fluorescence change at 582 nm was recorded.

[4] = pH dependent fluorescence emission spectra of cSNARF-1 (modified Henderson-Hasselbalch analysis); format: physicochemical
Method: Absorption spectra were obtained using a UV Mini 1240 spectrophotometer (Shimadzu Scientific Instruments, Columbia, Md.) in a 1-cm path length quartz cuvette. The total concentration of encapsulated cSNARF-1 in the suspensions was determined at pH 7 using the extinction coefficient of 27,000 L-mol-1-cm-1 at the absorbance maximum of 548 nm. Fluorescence spectra were obtained using a Cary Eclipse fluorescence spectrophotometer (Varian, Walnut Creek, Calif.) with excitation wavelength of 514 nm and collecting emissions over the range of 550 nm to 750 nm at room temperature. […] The pH was adjusted using 0.1 N HCl or NaOH, starting from pH 7 to either the higher or lower limit of pH and back. All spectra were corrected for dilution.
A more quantitative analyses of these changes in fluorescence intensity may be carried out using the modified Henderson-Hasselbalch equation. For a dye with dual wavelength emissions, the ratio of fluorescence intensity over a given pH range elucidates the dye's pKa as:
where Ri is the fluorescence intensity ratio of the two wavelengths (582 nm and 635 nm) at pHi, Rmin and Rmax are the minimum and maximum limiting values of Ri, respectively. The value of I(A)/I(B) is obtained from the emission intensities at 635 nm for the limiting acidic, I(A), and basic, I(B), pH regions. In practice, to elucidate the pKa of each sample, first the pH1/2 value, at which (Ri−Rmin)=(Rmax−Ri) or R1/2=(½) (Rmax+Rmin) was determined to make the second term of the right hand side of equation equal to zero. The value of pH1/2 was then subtracted by log(I(A)/I(B)) to estimate the pKa value.
To estimate the pH1/2 and I(A)/I(B) from the experiment, the fluorescence intensity changes at 635 nm and 582 nm, and their ratios were plotted against the pH values as shown in FIG. 4B. For elucidation of both pH1/2 and I(A)/I(B), it is important to note that well defined limiting intensities at both extreme ends of acidic and basic pHs must be available. Furthermore, the spectral changes shown in each of FIG. 4A should have a well defined isoemissive point to assure that the integrity of spectral chromophores is maintained throughout the entire pH range. Once pH1/2, Rmin, Rmax, and I(A)/I(B) are determined, the value for “c” may be estimated from the least squares fit of the equation to the experimental results shown as filled circles in FIG. 4B.

[5] = solvent Water, excitation 514 nm

loss of fluorescence intensity [2]: 30%
Acidic peak ([4]; solvent 1.5% IgG sln): 584 nm
Basic peak ([4]; solvent 1.5% IgG sln): 633 nm
c ([4]; solvent 1.5% IgG sln): −0.78
log{I[A]/I[B]} ([4]; solvent 1.5% IgG sln): −0.47
pH 1/2 ([4]; solvent 1.5% IgG sln): 7.25
pKa ([4]; solvent 1.5% IgG sln): 7.72
pKa ([4]; solvent Water): 7.46
log{I[A]/I[B]} ([4]; solvent Water, emission intensities at 635 nm, limiting acidic and basic pH): −0.31
Acidic peak [4, 5]: 581 nm
Basic peak [4, 5]: 633 nm
pH 1/2 ([4]; solvent Water, excitation 514 nm, room temperature): 7.15
c ([4]; solvent Water, least squares fit of Equation 1): −1.17
Substance: 5-(and-6)-Carboxy-seminaphthorhodafluor-1 [cSNARF-1]
pKa [1]: 7.5
time for change in fluorescence intensity (67%) ([3]; pH change from pH 10 to 5, average of three traces (FIG. 7 legend)): 175 ms
time for 65% change in fluorescence intensity (t65%) ([3]; response to pH change, average of three traces, 20° C., excitation 514 nm, emission 582 nm): 175 ms
